Source: ChEMBL document CHEMBL1142177, “Effects of age, gender, and race/ethnicity on the pharmacokinetics of posaconazole in healthy volunteers” (Antimicrob Agents Chemother, 2007)

How the values were obtained:
Format in all cases: ADME, organism-based
Homo sapiens [1] = assay: Apparent total clearance in 18-45 yr old woman plasma at 400 mg, po twice daily after 8 days; conditions: in vivo, 192 h
[2] = Tmax in >=65 yr old woman plasma at 400 mg, po twice daily after 8 days; conditions: female, human
[3] = Half life in >=65 yr old woman plasma at 400 mg, po twice daily after 8 days; conditions: female, human
[4] = (§1) AUC (0-12 hrs) in >=65 yr old human plasma at 400 mg, po twice daily after 8 days
Homo sapiens [5] = assay: AUC (0-12 hrs) in white racial/ethnic human plasma at 400 mg, po twice daily after 8 days; set-up: time < 12 hr, dose 400 mg, route oral; conditions: in vivo
Homo sapiens [6] = assay: Apparent total clearance in >=65 yr old man plasma at 400 mg, po twice daily after 8 days; conditions: in vivo, 192 h
[7] = Cmax in 18-45 yr old woman plasma at 400 mg, po twice daily after 8 days; set-up: dose 400 mg, route oral; conditions: female, human
[8] = Cmax in >=65 yr old woman plasma at 400 mg, po twice daily after 8 days; set-up: dose 400 mg, route oral; conditions: female, human
[9] = Tmax in >=65 yr old human plasma at 400 mg, po twice daily after 8 days
Homo sapiens [10] = assay: AUC (0-12 hrs) in 18-45 yr old man plasma at 400 mg, po twice daily after 8 days; set-up: time < 12 hr, dose 400 mg, route oral; conditions: in vivo
Homo sapiens [11] = assay: Apparent total clearance in >=65 yr old human plasma at 400 mg, po twice daily after 8 days; conditions: in vivo, 192 h
[12] = Half life in black racial/ethnic human plasma at 400 mg, po twice daily after 8 days
[13] = Tmax in 18-45 yr old woman plasma at 400 mg, po twice daily after 8 days; conditions: female, human
[14] = Half life in >=65 yr old man plasma at 400 mg, po twice daily after 8 days; conditions: male, human
[15] = Tmax in white racial/ethnic human plasma at 400 mg, po twice daily after 8 days
[16] = Half life in 18-45 yr old human plasma at 400 mg, po twice daily after 8 days
[17] = Tmax in >=65 yr old man plasma at 400 mg, po twice daily after 8 days; conditions: male, human
[18] = Cmax in white racial/ethnic human plasma at 400 mg, po twice daily after 8 days; set-up: dose 400 mg, route oral
Homo sapiens [19] = assay: AUC (0-12 hrs) in 18-45 yr old human plasma at 400 mg, po twice daily after 8 days; set-up: dose 400 mg, time < 12 hr, route oral; conditions: in vivo
Homo sapiens [20] = assay: AUC (0-12 hrs) in black racial/ethnic human plasma at 400 mg, po twice daily after 8 days; set-up: dose 400 mg, time < 12 hr, route oral; conditions: in vivo
[21] = Tmax in 18-45 yr old human plasma at 400 mg, po twice daily after 8 days
Homo sapiens [22] = assay: Apparent total clearance in 18-45 yr old man plasma at 400 mg, po twice daily after 8 days; conditions: in vivo, 192 h
Homo sapiens [23] = assay: AUC (0-12 hrs) in >=65 yr old man plasma at 400 mg, po twice daily after 8 days; set-up: time < 12 hr, dose 400 mg, route oral; conditions: in vivo
Homo sapiens [24] = assay: AUC (0-12 hrs) in 18-45 yr old woman plasma at 400 mg, po twice daily after 8 days; set-up: time < 12 hr, dose 400 mg, route oral; conditions: in vivo
Homo sapiens [25] = assay: Apparent total clearance in white racial/ethnic human plasma at 400 mg, po twice daily after 8 days; conditions: in vivo, 192 h
Homo sapiens [26] = assay: Apparent total clearance in >=65 yr old woman plasma at 400 mg, po twice daily after 8 days; conditions: in vivo, 192 h
[27] = Cmax in >=65 yr old man plasma at 400 mg, po twice daily after 8 days; set-up: dose 400 mg, route oral; conditions: male, human
[28] = Tmax in black racial/ethnic human plasma at 400 mg, po twice daily after 8 days
[29] = Cmax in 18-45 yr old human plasma at 400 mg, po twice daily after 8 days; set-up: dose 400 mg, route oral
[30] = Half life in white racial/ethnic human plasma at 400 mg, po twice daily after 8 days
Homo sapiens [31] = assay: as §1; set-up: time < 12 hr, dose 400 mg, route oral; conditions: in vivo
[32] = Cmax in black racial/ethnic human plasma at 400 mg, po twice daily after 8 days; set-up: dose 400 mg, route oral
Homo sapiens [33] = assay: Apparent total clearance in black racial/ethnic human plasma at 400 mg, po twice daily after 8 days; conditions: in vivo, 192 h
Homo sapiens [34] = assay: AUC (0-12 hrs) in >=65 yr old woman plasma at 400 mg, po twice daily after 8 days; set-up: dose 400 mg, time < 12 hr, route oral; conditions: in vivo
[35] = Tmax in 18-45 yr old man plasma at 400 mg, po twice daily after 8 days; conditions: male, human
[36] = Cmax in 18-45 yr old man plasma at 400 mg, po twice daily after 8 days; set-up: dose 400 mg, route oral; conditions: male, human
[37] = Cmax in >=65 yr old human plasma at 400 mg, po twice daily after 8 days; set-up: dose 400 mg, route oral
[38] = Half life in 18-45 yr old woman plasma at 400 mg, po twice daily after 8 days; conditions: female, human
Homo sapiens [39] = assay: Apparent total clearance in 18-45 yr old human plasma at 400 mg, po twice daily after 8 days; conditions: in vivo, 192 h
[40] = Half life in 18-45 yr old man plasma at 400 mg, po twice daily after 8 days; conditions: male, human

`CC[C@@H]([C@H](C)O)n1ncn(-c2ccc(N3CCN(c4ccc(OC[C@@H]5CO[C@@](Cn6cncn6)(c6ccc(F)cc6F)C5)cc4)CC3)cc2)c1=O` [POSACONAZOLE] gave a CL (Homo sapiens [1]) of 32.6 L/h, a Tmax [2] of 6 h and a half-life [3] of 42.4 h. The half-life [4] was 41.8 h, the AUC (Homo sapiens [5]) was 30091 ng·h/mL and the CL (Homo sapiens [6]) was 28.1 L/h. For the same molecule, the Cmax [7] was 2520 ng/mL, the Cmax [8] was 3500 ng/mL and the Tmax [9] was 5 h. For the same molecule, the AUC (Homo sapiens [10]) was 27784 ng·h/mL, the CL (Homo sapiens [11]) was 26.7 L/h and the half-life [12] was 32.2 h. The Tmax [13] was 5 h, the half-life [14] was 37.7 h and the Tmax [15] was 5 h. For the same molecule, the half-life [16] was 31.6 h, the Tmax [17] was 5 h and the Cmax [18] was 2860 ng/mL. For the same molecule, the AUC (Homo sapiens [19]) was 26740 ng·h/mL, the AUC (Homo sapiens [20]) was 25107 ng·h/mL and the Tmax [21] was 5 h. It also gave a CL (Homo sapiens [22]) of 33.5 L/h, an AUC (Homo sapiens [23]) of 32963 ng·h/mL and an AUC (Homo sapiens [24]) of 25507 ng·h/mL. For the same molecule, the CL (Homo sapiens [25]) was 54 L/h, the CL (Homo sapiens [26]) was 25.4 L/h and the Cmax [27] was 3250 ng/mL. The Tmax [28] was 5 h, the Cmax [29] was 2610 ng/mL and the half-life [30] was 37.3 h. For the same molecule, the AUC (Homo sapiens [31]) was 35444 ng·h/mL, the Cmax [32] was 2400 ng/mL and the CL (Homo sapiens [33]) was 37 L/h. It also gave an AUC (Homo sapiens [34]) of 37924 ng·h/mL, a Tmax [35] of 4 h and a Cmax [36] of 2680 ng/mL. For the same molecule, the Cmax [37] was 3370 ng/mL, the half-life [38] was 31.9 h and the CL (Homo sapiens [39]) was 33.1 L/h. For the same molecule, the half-life [40] was 31.3 h.
